# Laboratory results taken from US9181255B2, “Fused heteroaromatic pyrrolidinones as SYK inhibitors” (Takeda Pharmaceutical Company Limited, priority 2009, dated 2015).
# Biological target: SYK (Homo sapiens, UniProt P43405)
# Assay: SYK inhibition assay: SYK-mediated phosphorylation of FAM-labeled substrate (Caliper microfluidic)
# Format: biochemical
# Conditions: read-out: SYK Inhibition (pIC50) (converted)
row,Structure (SMILES),IC50 [µM]
1,"CCOC[C@H](N)CNc1cc2c(c(Nc3cccc(C)c3)n1)C(=O)NC2 [Example 54, (R)-6-(2-Amino-3-ethoxypropylamino)-4-(m-tolylamino)-1H-pyrrolo[3,4-c]pyridin-3(2H)-one]",0.251
2,"CCOC[C@H](N)CNc1nc(Nc2cccc(C)c2)c2c(c1F)CNC2=O [Example 55, (R)-6-(2-Amino-3-ethoxypropylamino)-7-fluoro-4-(m-tolylamino)-1H-pyrrolo[3,4-c]pyridin-3(2H)-one]",0.0158
3,"Cc1cccc(Nc2nc(NCC(N)C(F)(F)F)cc3c2C(=O)NC3)c1 (stereo not drawn) [Example 56, 6-(2-Amino-3,3,3-trifluoropropylamino)-4-(m-tolylamino)-1H-pyrrolo[3,4-c]pyridin-3(2H)-one]",2.51
4,"Cc1cccc(Nc2nc(N[C@H](CC(C)C)C(N)=O)cc3c2C(=O)NC3)c1 [Example 57, (R)-4-Methyl-2-(3-oxo-4-(m-tolylamino)-2,3-dihydro-1H-pyrrolo[3,4-c]pyridin-6-ylamino)pentanamide]",0.0158
5,"CCn1cc(-c2nc(N[C@@H]3CCCC[C@@H]3N)cc3c2C(=O)NC3)cn1 [Example 59, 6-((1R,2S)-2-Aminocyclohexylamino)-4-(1-ethyl-1H-pyrazol-4-yl)-1H-pyrrolo[3,4-c]pyridin-3(2H)-one]",0.0794
6,"CCn1cc(-c2nc(N[C@@H]3CCCC[C@@H]3N)c(F)c3c2C(=O)NC3)cn1 [Example 60, 6-((1R,2S)-2-Aminocyclohexylamino)-4-(1-ethyl-1H-pyrazol-4-yl)-7-fluoro-1H-pyrrolo[3,4-c]pyridin-3(2H)-one]",0.0158
7,N[C@H]1CCCC[C@H]1Nc1cc2c(c(-c3cnn(C4CC4)c3)n1)C(=O)NC2 [Example 61],0.0631
8,"N[C@H]1CCCC[C@H]1Nc1nc(-c2cnn(C(F)F)c2)c2c(c1F)CNC2=O [Example 62, 6-((1R,2S)-2-Aminocyclohexylamino)-4-(1-(difluoromethyl)-1H-pyrazol-4-yl)-7-fluoro-1H-pyrrolo[3,4-c]pyridin-3(2H)-one]",0.01
9,"N[C@H]1CCCC[C@H]1Nc1nc(-c2cnn(C3CC3)c2)c2c(c1F)CNC2=O [Example 63, 6-((1R,2S)-2-Aminocyclohexylamino)-4-(1-cyclopropyl-1H-pyrazol-4-yl)-7-fluoro-1H-pyrrolo[3,4-c]pyridin-3(2H)-one]",0.00794
10,"Cn1cc(-c2nc(N[C@@H]3CCOC[C@@H]3N)c(F)c3c2C(=O)NC3)cn1 [Example 65, 6-((3R,4R)-3-Aminotetrahydro-2H-pyran-4-ylamino)-7-fluoro-4-(1-methyl-1H-pyrazol-4-yl)-1H-pyrrolo[3,4-c]pyridin-3(2H)-one]",0.01
11,"CC(C)C[C@@H](Nc1nc(-c2cnn(C)c2)c2c(c1F)CNC2=O)C(N)=O [Example 70, (R)-2-(7-Fluoro-4-(1-methyl-1H-pyrazol-4-yl)-3-oxo-2,3-dihydro-1H-pyrrolo[3,4-c]pyridin-6-ylamino)-4-methylpentanamide]",0.00158
12,"CC(C)C[C@@H](Nc1nc(-c2cnn(C(F)F)c2)c2c(c1F)CNC2=O)C(N)=O [Example 71, (R)-2-(4-(1-(Difluoromethyl)-1H-pyrazol-4-yl)-7-fluoro-3-oxo-2,3-dihydro-1H-pyrrolo[3,4-c]pyridin-6-ylamino)-4-methylpentanamide]",0.00794
13,"CC(C)C[C@@H](Nc1nc(-c2cnn(C3CC3)c2)c2c(c1F)CNC2=O)C(N)=O [Example 72, (R)-2-(4-(1-Cyclopropyl-1H-pyrazol-4-yl)-7-fluoro-3-oxo-2,3-dihydro-1H-pyrrolo[3,4-c]pyridin-6-ylamino)-4-methylpentanamide]",0.0316
14,"CC(C)C[C@@H](Nc1nc(-c2coc3ccccc23)c2c(c1F)CNC2=O)C(N)=O [Example 73, (R)-2-(4-(Benzofuran-3-yl)-7-fluoro-3-oxo-2,3-dihydro-1H-pyrrolo[3,4-c]pyridin-6-ylamino)-4-methylpentanamide]",0.00794
15,"CC(C)C[C@@H](Nc1nc(-c2cnn3ccccc23)c2c(c1F)CNC2=O)C(N)=O [Example 74, (R)-2-(7-Fluoro-3-oxo-4-(pyrazolo[1,5-a]pyridin-3-yl)-2,3-dihydro-1H-pyrrolo[3,4-c]pyridin-6-ylamino)-4-methylpentanamide]",0.00501
16,"COC[C@H](N)CNc1cc2c(c(Nc3cccc(C)c3)n1)C(=O)NC2 [Example 77, (R)-6-(2-Amino-3-methoxypropylamino)-4-(m-tolylamino)-1H-pyrrolo[3,4-c]pyridin-3(2H)-one]",0.0316
17,"COC[C@H](N)CNc1nc(Nc2cccc(C)c2)c2c(c1C#N)CNC2=O [Example 78, (R)-6-(2-Amino-3-methoxypropylamino)-3-oxo-4-(m-tolylamino)-2,3-dihydro-1H-pyrrolo[3,4-c]pyridine-7-carbonitrile]",0.00398
18,"COC[C@H](N)CNc1nc(Nc2cccc(C)c2)c2c(c1F)CNC2=O [Example 79, (R)-6-(2-Amino-3-methoxypropylamino)-7-fluoro-4-(m-tolylamino)-1H-pyrrolo[3,4-c]pyridin-3(2H)-one]",0.02
19,"C=CC(=O)c1c(N[C@@H]2CCCC[C@@H]2N)nc(Nc2cccc(C)c2)c2c1CNC2=O [Example 80, 7-Acryloyl-6-((1R,2S)-2-aminocyclohexylamino)-4-(m-tolylamino)-1H-pyrrolo[3,4-c]pyridin-3(2H)-one]",3.16
20,"Cc1cccc(Nc2nc(N[C@@H]3CCCC[C@@H]3N)c(I)c3c2C(=O)NC3)c1 [Example 81, 6-((1R,2S)-2-Aminocyclohexylamino)-7-iodo-4-(m-tolylamino)-1H-pyrrolo[3,4-c]pyridin-3(2H)-one]",0.00316
21,"Cc1cccc(Nc2nc(N[C@@H]3CCCC[C@@H]3N)c(-c3ccnn3C)c3c2C(=O)NC3)c1 [Example 84, 6-((1R,2S)-2-Aminocyclohexylamino)-7-(1-methyl-1H-pyrazol-5-yl)-4-(m-tolylamino)-1H-pyrrolo[3,4-c]pyridin-3(2H)-one]",0.02
22,"Cc1cccc(Nc2nc(N[C@@H]3CCOC[C@@H]3N)cc3c2C(=O)NC3)c1 [Example 85, 6-((3R,4R)-3-Aminotetrahydro-2H-pyran-4-ylamino)-4-(m-tolylamino)-1H-pyrrolo[3,4-c]pyridin-3(2H)-one]",0.00398
23,"Cc1cccc(Nc2nc(N[C@H]3COCC[C@H]3N)cc3c2C(=O)NC3)c1 [Example 86, 6-((3R,4R)-4-Aminotetrahydro-2H-pyran-3-ylamino)-4-(m-tolylamino)-1H-pyrrolo[3,4-c]pyridin-3(2H)-one]",2.51
24,Cc1cccc(Nc2nc(N[C@@H]3CCCC[C@@H]3N)c(-c3ccccc3)c3c2C(=O)NC3)c1 [Example 87],0.0631
25,"Cc1cccc(Nc2nc(N[C@@H]3CCOC[C@@H]3N)c(F)c3c2C(=O)NC3)c1 [Example 89, 6-((3R,4R)-3-Aminotetrahydro-2H-pyran-4-ylamino)-7-fluoro-4-(m-tolylamino)-1H-pyrrolo[3,4-c]pyridin-3(2H)-one]",0.00398
26,"Cc1c(N[C@@H]2CCCC[C@@H]2N)nc(-c2cnn(C)c2)c2c1CNC2=O [Example 90, 6-((1R,2S)-2-Aminocyclohexylamino)-7-methyl-4-(1-methyl-1H-pyrazol-4-yl)-1H-pyrrolo[3,4-c]pyridin-3(2H)-one]",0.01
27,"COC[C@H](N)CNc1cc2c(c(-c3cnn(C)c3)n1)C(=O)NC2 [Example 91, (R)-6-(2-Amino-3-methoxypropylamino)-4-(1-methyl-1H-pyrazol-4-yl)-1H-pyrrolo[3,4-c]pyridin-3(2H)-one]",0.251
